We go through 24 compounds from ChEMBL document CHEMBL1147770, “Design, synthesis and structure-activity relationships of new phosphinate inhibitors of MurD” (Bioorg Med Chem Lett, 2006).

The target of one assay is T1, UDP-N-acetylmuramoylalanine--D-glutamate ligase (Escherichia coli K-12, UniProt P14900).
T1 sequence (P14900 whole entry): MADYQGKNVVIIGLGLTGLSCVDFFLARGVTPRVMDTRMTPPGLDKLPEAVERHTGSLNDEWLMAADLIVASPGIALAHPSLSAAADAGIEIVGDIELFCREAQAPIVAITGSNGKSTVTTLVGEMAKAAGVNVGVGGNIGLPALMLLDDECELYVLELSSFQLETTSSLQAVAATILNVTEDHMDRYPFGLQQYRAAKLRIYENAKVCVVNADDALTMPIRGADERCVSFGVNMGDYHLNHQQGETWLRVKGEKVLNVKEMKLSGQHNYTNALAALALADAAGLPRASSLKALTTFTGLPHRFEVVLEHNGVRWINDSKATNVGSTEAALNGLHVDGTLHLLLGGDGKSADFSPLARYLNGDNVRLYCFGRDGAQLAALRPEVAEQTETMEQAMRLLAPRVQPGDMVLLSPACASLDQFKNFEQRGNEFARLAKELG
The experiment in a line: Inhibitory activity against MurD from Escherichia coli.
For the compound `CC(NC(=O)[C@@H](C)NS(=O)(=O)Cc1ccc([N+](=O)[O-])cc1)P(=O)(O)CC(CCC(=O)O)C(=O)O` (some centres not stated), the IC50 is 78 µM. That is a double-digit micromolar value.

`CC(NC(=O)/C=C/c1ccc2c(c1)OCO2)P(=O)(O)CC(CCC(=O)O)C(=O)O` (configuration not stated): it took 95 µM to reach half-maximal inhibition (IC50).

As for `CC(NC(=O)/C=C/c1ccccc1)P(=O)(O)CC(CCC(=O)O)C(=O)O` (configuration not stated), the IC50 was 432 µM. Compared with the last compound, the IC50 is about 4.5-fold higher.

The next assay deals with T2, UDP-N-acetylmuramoylalanine--D-glutamate ligase (Streptococcus pneumoniae serotype 4 (strain ATCC BAA-334 / TIGR4), UniProt Q97RU8).
T2 sequence (Q97RU8 whole entry): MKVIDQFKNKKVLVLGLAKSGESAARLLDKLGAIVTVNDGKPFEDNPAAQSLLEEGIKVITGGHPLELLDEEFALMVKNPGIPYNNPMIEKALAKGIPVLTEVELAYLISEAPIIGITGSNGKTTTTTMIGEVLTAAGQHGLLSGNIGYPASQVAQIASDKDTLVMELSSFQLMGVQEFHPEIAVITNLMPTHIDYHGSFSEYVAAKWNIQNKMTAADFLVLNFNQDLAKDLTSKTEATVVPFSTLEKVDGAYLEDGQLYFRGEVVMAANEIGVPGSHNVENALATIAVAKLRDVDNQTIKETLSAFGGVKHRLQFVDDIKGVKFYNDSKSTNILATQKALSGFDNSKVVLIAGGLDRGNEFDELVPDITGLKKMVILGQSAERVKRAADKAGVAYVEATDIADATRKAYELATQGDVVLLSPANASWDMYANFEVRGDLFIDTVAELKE
The assay can be described thus: Inhibitory activity against MurD from Streptococcus pneumoniae.
In the case of `CC(NC(=O)OCc1ccccc1)P(=O)(O)CC(CCC(=O)O)C(=O)O` (configuration not stated), the IC50 was 100 µM.

The target of another assay is T3, UDP-N-acetylmuramoylalanine--D-glutamate ligase (Escherichia coli K-12) (UniProt P14900).
T3 sequence (whole entry): T1 sequence (P14900 whole entry)
The experiment in a line: Residual activity of MurD from Escherichia coli at 1 mM.
For the compound `CC(NC(=O)/C=C/c1cccc(O)c1)P(=O)(O)CC(CCC(=O)O)C(=O)O` (configuration not stated), the Activity was 23%.

The compound `CC(NS(=O)(=O)Cc1ccc([N+](=O)[O-])cc1)P(=O)(O)CC(CCC(=O)O)C(=O)O` (configuration not stated) showed an Activity of 47%.

`CC(NC(=O)[C@H](C)NS(=O)(=O)Cc1ccc([N+](=O)[O-])cc1)P(=O)(O)CCC(=O)O` (some centres not stated) displayed an Activity of 100%.

`CC(NC(=O)[C@@H](C)NS(=O)(=O)Cc1ccc([N+](=O)[O-])cc1)P(=O)(O)CC(CCC(=O)O)C(=O)O` (some centres not stated) showed an Activity of 8%.

The compound `CCC(C)C(NC(=O)OCc1ccccc1)P(=O)(O)CC(CCC(=O)O)C(=O)O` (configuration not stated) displayed an Activity of 83%.

In turn, `CC(NS(=O)(=O)Cc1ccccc1)P(=O)(O)CC(CCC(=O)O)C(=O)O` (configuration not stated) showed an Activity of 40%.

As for `CC(NC(=O)OCc1ccccc1)P(=O)(O)CC(CCC(=O)O)C(=O)O` (configuration not stated), the Activity was found to be 41%.

In turn, `CC(NC(=O)[C@@H](C)NC(=O)Cc1ccc2c(c1)OCO2)P(=O)(O)CC(CCC(=O)O)C(=O)O` (some centres not stated) had an Activity of 44%.

Consider `CC(NC(=O)Cc1ccc2c(c1)OCO2)P(=O)(O)CC(CCC(=O)O)C(=O)O` (configuration not stated), for which the Activity came out at 36%.

`CC(C)C(NC(=O)OCc1ccccc1)P(=O)(O)CC(CCC(=O)O)C(=O)O` (configuration not stated) had an Activity of 66%.

`CC(NS(=O)(=O)Cc1ccccc1[N+](=O)[O-])P(=O)(O)CC(CCC(=O)O)C(=O)O` (configuration not stated) displayed an Activity of 30%.

For the compound `CC(NC(=O)OCc1ccccc1)P(=O)(O)CCC(=O)O` (configuration not stated), the Activity came to 92%.

Turning to `CC(NC(=O)/C=C/c1ccc2c(c1)OCO2)P(=O)(O)CCC(=O)O` (configuration not stated), the Activity is 91%.

Regarding `CC(NS(=O)(=O)Cc1ccc(F)cc1Cl)P(=O)(O)CC(CCC(=O)O)C(=O)O` (configuration not stated), the Activity turned out to be 37%.

On to `CC(NS(=O)(=O)c1ccc2ccccc2c1)P(=O)(O)CC(CCC(=O)O)C(=O)O` (configuration not stated), for which the Activity amounted to 55%.

On to `CC(C)CC(NC(=O)OCc1ccccc1)P(=O)(O)CC(CCC(=O)O)C(=O)O` (configuration not stated), for which the Activity stood at 65%.

On to `CC(NS(=O)(=O)Cc1ccc(C(F)(F)F)cc1)P(=O)(O)CC(CCC(=O)O)C(=O)O` (configuration not stated), for which the Activity came out at 50%.

`CC(NS(=O)(=O)c1cccc([N+](=O)[O-])c1)P(=O)(O)CC(CCC(=O)O)C(=O)O` (configuration not stated) showed an Activity of 52%.

`CC(NS(=O)(=O)Cc1cccc(C(F)(F)F)c1)P(=O)(O)CC(CCC(=O)O)C(=O)O` (configuration not stated) showed an Activity of 49%.

With `CC(NC(=O)[C@@H](C)NS(=O)(=O)Cc1cccc([N+](=O)[O-])c1)P(=O)(O)CC(CCC(=O)O)C(=O)O` (some centres not stated), the Activity was 19%.

`CC(NS(=O)(=O)c1ccccc1)P(=O)(O)CC(CCC(=O)O)C(=O)O` (configuration not stated) returned an Activity of 54%.

Compound `CC(NS(=O)(=O)Cc1cccc([N+](=O)[O-])c1)P(=O)(O)CC(CCC(=O)O)C(=O)O` (configuration not stated) displayed an Activity of 22%.

As to `CC(NC(=O)/C=C/c1ccccc1)P(=O)(O)CC(CCC(=O)O)C(=O)O` (configuration not stated), the Activity is 28%.

One may read the IC50 as the concentration that gives 50% inhibition.
